Legend:
Type in all cases: functional
[1] = system: NCI-H522; test: Cytotoxicity against human NCI-H522 cells assessed as cell growth at 1 uM after 48 hrs by SRB assay relative to control; details: NCI-H522, 48 h, read-out: Activity
[2] = system: CAKI-1; test: Cytotoxicity against human Caki1 cells after 48 hrs by SRB assay; details: CAKI-1, 48 h
[3] = system: IGROV-1; test: Cytotoxicity against human IGROV1 cells assessed as cell growth at 0.1 uM after 48 hrs by SRB assay relative to control; details: IGROV-1, 48 h, read-out: Activity
[4] = system: T47D; test: Cytotoxicity against human T47D cells assessed as cell growth at 100 uM after 48 hrs by SRB assay relative to control; details: read-out: Activity
[5] = system: M14; test: Cytotoxicity against human M14 cells assessed as cell growth at 0.1 uM after 48 hrs by SRB assay relative to control; details: M14, 48 h, read-out: Activity
[6] = system: BT-549; test: Cytotoxicity against human BT549 cells assessed as cell growth at 0.01 uM after 48 hrs by SRB assay relative to control; details: BT-549, 48 h, read-out: Activity
[7] = system: COLO 205; test: Cytotoxicity against human COLO205 cells after 48 hrs by SRB assay; details: COLO 205, 48 h
[8] = system: SW-620; test: Cytotoxicity against human SW620 cells assessed as cell growth at 100 uM after 48 hrs by SRB assay relative to control; details: SW-620, 48 h, read-out: Activity
[9] = system: M14; test: Cytotoxicity against human M14 cells after 48 hrs by SRB assay; details: M14, 48 h
[10] = system: TK-10; test: Cytotoxicity against human TK10 cells after 48 hrs by SRB assay; details: TK-10, 48 h; for CC50: read-out: LC50 (the source's name)
[11] = system: OVCAR-8; test: Cytotoxicity against human OVCAR8 cells assessed as cell growth at 0.1 uM after 48 hrs by SRB assay relative to control; details: OVCAR-8, 48 h, read-out: Activity
[12] = system: CAKI-1; test: Cytotoxicity against human Caki1 cells assessed as cell growth at 1 uM after 48 hrs by SRB assay relative to control; details: CAKI-1, 48 h, read-out: Activity
[13] = system: NCI-H522; test: Cytotoxicity against human NCI-H522 cells assessed as cell growth at 0.01 uM after 48 hrs by SRB assay relative to control; details: NCI-H522, 48 h, read-out: Activity
[14] = system: CCRF-CEM; test: Cytotoxicity against human CCRF-CEM cells assessed as cell growth at 1 uM after 48 hrs by SRB assay relative to control; details: read-out: Activity
[15] = system: MDA-MB-231; test: Cytotoxicity against human MDA-MB-231 cells assessed as cell growth at 0.1 uM after 48 hrs by SRB assay relative to control; details: MDA-MB-231, 48 h, read-out: Activity
[16] = system: CAKI-1; test: Cytotoxicity against human Caki1 cells assessed as cell growth at 100 uM after 48 hrs by SRB assay relative to control; details: CAKI-1, 48 h, read-out: Activity
[17] = system: ACHN; test: Cytotoxicity against human ACHN cells assessed as cell growth at 1 uM after 48 hrs by SRB assay relative to control; details: read-out: Activity
[18] = system: SNB-75; test: Cytotoxicity against human SNB75 cells after 48 hrs by SRB assay; details: SNB-75, 48 h; for CC50: read-out: LC50 (the source's name)
[19] = system: MOLT-4; test: Cytotoxicity against human MOLT4 cells assessed as cell growth at 0.01 uM after 48 hrs by SRB assay relative to control; details: MOLT-4, 48 h, read-out: Activity
[20] = system: SW-620; test: Cytotoxicity against human SW620 cells assessed as cell growth at 1 uM after 48 hrs by SRB assay relative to control; details: SW-620, 48 h, read-out: Activity
[21] = system: NCI-H460; test: Cytotoxicity against human NCI-H460 cells assessed as cell growth at 1 uM after 48 hrs by SRB assay relative to control; details: NCI-H460, 48 h, read-out: Activity
[22] = system: MDA-MB-231; test: Cytotoxicity against human MDA-MB-231 cells after 48 hrs by SRB assay; details: MDA-MB-231, 48 h
[23] = system: RXF 393; test: Cytotoxicity against human RXF393 cells after 48 hrs by SRB assay; details: RXF 393, 48 h
[24] = system: SR; test: Cytotoxicity against human SR cells assessed as cell growth at 0.1 uM after 48 hrs by SRB assay relative to control; details: read-out: Activity
[25] = system: SF-268; test: Cytotoxicity against human SF268 cells after 48 hrs by SRB assay; details: SF-268, 48 h; for CC50: read-out: LC50 (the source's name)
[26] = system: SNB-19; test: Cytotoxicity against human SNB19 cells assessed as cell growth at 1 uM after 48 hrs by SRB assay relative to control; details: SNB-19, 48 h, read-out: Activity
[27] = system: SNB-19; test: Cytotoxicity against human SNB19 cells assessed as cell growth at 0.01 uM after 48 hrs by SRB assay relative to control; details: SNB-19, 48 h, read-out: Activity
[28] = system: Malme-3M; test: Cytotoxicity against human MALME-3M cells assessed as cell growth at 0.1 uM after 48 hrs by SRB assay relative to control; details: read-out: Activity
[29] = system: HT-29; test: Cytotoxicity against human HT-29 cells after 48 hrs by SRB assay; details: HT-29, 48 h
[30] = system: UACC-62; test: Cytotoxicity against human UACC62 cells assessed as cell growth at 100 uM after 48 hrs by SRB assay relative to control; details: UACC-62, 48 h, read-out: Activity
[31] = system: TK-10; test: Cytotoxicity against human TK10 cells assessed as cell growth at 0.01 uM after 48 hrs by SRB assay relative to control; details: TK-10, 48 h, read-out: Activity
[32] = system: MCF7; test: Cytotoxicity against human MCF7 cells assessed as cell growth at 0.1 uM after 48 hrs by SRB assay relative to control; details: MCF7, 48 h, read-out: Activity
[33] = system: COLO 205; test: Cytotoxicity against human COLO205 cells assessed as cell growth at 0.01 uM after 48 hrs by SRB assay relative to control; details: COLO 205, 48 h, read-out: Activity
[34] = system: MDA-MB-435; test: Cytotoxicity against human MDA-MB-435 cells after 48 hrs by SRB assay; details: MDA-MB-435, 48 h
[35] = system: HOP-62; test: Cytotoxicity against human HOP62 cells assessed as cell growth at 100 uM after 48 hrs by SRB assay relative to control; details: HOP-62, 48 h, read-out: Activity
[36] = system: K562; test: Cytotoxicity against human K562 cells assessed as cell growth at 0.1 uM after 48 hrs by SRB assay relative to control; details: K562, 48 h, read-out: Activity
[37] = system: HCT-116; test: Cytotoxicity against human HCT116 cells after 48 hrs by SRB assay; details: HCT-116, 48 h

N#CCCCCCn1cc(C2=C(c3cn(CCCCCC#N)c4ccccc34)C(=O)N(O)C2=O)c2ccccc21
growth at 1 µM [1]: 85% | GI50 [2]: 21.3 µM | LC50 [2]: > 100 µM | TGI [2]: > 100 µM | growth at 0.1 µM [3]: 101% | growth at 100 µM [4]: -7% | growth at 0.1 µM [5]: 85% | growth at 0.01 µM [6]: 101% | GI50 [7]: 17.7 µM | LC50 [7]: > 100 µM | TGI [7]: 58.7 µM | growth at 100 µM [8]: 7% | GI50 [9]: 4.42 µM | LC50 (concentration killing 50% of cells) [9]: > 100 µM | TGI [9]: 34 µM | GI50 [10]: 22.2 µM | TGI [10]: > 100 µM | CC50 [10]: > 100 µM | growth at 0.1 µM [11]: 99% | growth at 1 µM [12]: 93% | growth at 0.01 µM [13]: 89% | growth at 1 µM [14]: 83% | growth at 0.1 µM [15]: 91% | growth at 100 µM [16]: 16% | growth at 1 µM [17]: 88% | GI50 [18]: 2.84 µM | TGI [18]: 20 µM | CC50 [18]: > 100 µM | growth at 0.01 µM [19]: 87% | growth at 1 µM [20]: 91% | growth at 1 µM [21]: 101% | GI50 [22]: 4.26 µM | LC50 (50% lethal concentration) [22]: > 100 µM | TGI [22]: 64.7 µM | GI50 [23]: 3.15 µM | LC50 [23]: > 100 µM | TGI [23]: 12.2 µM | growth at 0.1 µM [24]: 100% | GI50 [25]: 10.1 µM | TGI [25]: > 100 µM | CC50 [25]: > 100 µM | growth at 1 µM [26]: 91% | growth at 0.01 µM [27]: 97% | growth at 0.1 µM [28]: 94% | GI50 [29]: 10.2 µM | LC50 [29]: > 100 µM | TGI [29]: 40.7 µM | growth at 100 µM [30]: -55% | growth at 0.01 µM [31]: 93% | growth at 0.1 µM [32]: 85% | growth at 0.01 µM [33]: 99% | GI50 [34]: 2.74 µM | LC50 [34]: > 100 µM | TGI [34]: 8.31 µM | growth at 100 µM [35]: 4% | growth at 0.1 µM [36]: 91% | GI50 [37]: 4.17 µM | LC50 [37]: > 100 µM | TGI [37]: 37.8 µM

Cn1cc(C2=C(c3cn(C)c4ncccc34)C(=O)NC2=O)c2ccccc21
growth at 1 µM [1]: 93% | GI50 [2]: 1.19 µM | TGI [2]: 10.2 µM | growth at 0.1 µM [3]: 97% | growth at 100 µM [4]: -11% | growth at 0.1 µM [5]: 108% | growth at 0.01 µM [6]: 110% | GI50 [7]: 1.69 µM | TGI [7]: 3.71 µM | growth at 100 µM [8]: -19% | GI50 [9]: 3.84 µM | TGI [9]: 12.5 µM | GI50 [10]: 4.82 µM | TGI [10]: 43.9 µM | CC50 [10]: > 100 µM | growth at 0.1 µM [11]: 100% | growth at 1 µM [12]: 54% | growth at 0.01 µM [13]: 90% | growth at 1 µM [14]: 85% | growth at 0.1 µM [15]: 104% | growth at 100 µM [16]: -10% | growth at 1 µM [17]: 87% | GI50 [18]: 0.291 µM | TGI [18]: 7.97 µM | CC50 [18]: 94.6 µM | growth at 0.01 µM [19]: 103% | growth at 1 µM [20]: 88% | growth at 1 µM [21]: 89% | GI50 [22]: 4.67 µM | TGI [22]: 38.8 µM | GI50 [23]: 1.95 µM | TGI [23]: 5.32 µM | growth at 0.1 µM [24]: 88% | GI50 [25]: 4.86 µM | TGI [25]: 48.4 µM | CC50 [25]: > 100 µM | growth at 1 µM [26]: 91% | growth at 0.01 µM [27]: 92% | growth at 0.1 µM [28]: 112% | GI50 [29]: 3.07 µM | TGI [29]: 20.6 µM | growth at 100 µM [30]: -51% | growth at 0.01 µM [31]: 100% | growth at 0.1 µM [32]: 87% | growth at 0.01 µM [33]: 105% | GI50 [34]: 0.648 µM | TGI [34]: 19.3 µM | growth at 100 µM [35]: -17% | growth at 0.1 µM [36]: 102% | GI50 [37]: 3.24 µM | TGI [37]: 30.2 µM
